pIC50: −log10 of the molar value.
Experiments:
[1] = Partition coefficient (logP); assay type: physicochemical; conditions: octanol/water
NCI-H460 = experiment: In vitro cytotoxicity against H460 a human non-small lung carcinoma cell line after 1 hour drug exposure; assay type: functional, cell-based; conditions: NCI-H460, 1 h
[2] = In vivo antitumor activity in NSCLC H460 xenografted sc in athymic nude mice expressed as percent Body weight loss (BWL) at a dose of 18 mg/kg orally for q4dx4; assay type: functional, Mus musculus; conditions: route oral
[3] = In vivo antitumor activity in NSCLC H460 xenografted sc in athymic nude mice expressed as percent Body weight loss (BWL) at a dose of 2 mg/kg orally for q4dx4; assay type: functional, Mus musculus; conditions: route oral
[4] = In vivo antitumor activity in NSCLC H460 xenografted sc in athymic nude mice expressed as percent Body weight loss (BWL) at a dose of 6 mg/kg orally for q4dx4; assay type: functional, Mus musculus; conditions: route oral
[5] = In vivo antitumor activity in NSCLC H460 xenografted sc in athymic nude mice expressed as percent Tumor volume inhibition (TVI) at a dose of 18 mg/kg perorally for q4dx4; assay type: functional, Mus musculus; conditions: route oral
[6] = In vivo antitumor activity in NSCLC H460 xenografted sc in athymic nude mice expressed as percent Tumor volume inhibition (TVI) at a dose of 6 mg/kg perorally for q4dx4; assay type: functional, Mus musculus; conditions: route oral
[7] = In vivo antitumor activity in NSCLC H460 xenografted sc in athymic nude mice expressed as percent tumor volume inhibition (TVI) at a dose of 2 mg/kg perorally for q4dx4; assay type: functional, Mus musculus; conditions: route oral
[8] = In vivo antitumor activity in NSCLC H460 xenografted sc in athymic nude mice expressed as percent Body weight loss (BWL) at a dose of 15 mg/kg orally for q4dx4; assay type: functional, Mus musculus; conditions: route oral
[9] = In vivo antitumor activity in NSCLC H460 xenografted sc in athymic nude mice expressed as percent tumor volume inhibition (TVI) at a dose of 15 mg/kg perorally for q4dx4; assay type: functional, Mus musculus; conditions: route oral

SMILES | logP [1] | pIC50 (NCI-H460) | also measured
CC[C@@]1(O)C(=O)OCc2c1cc1n(c2=O)Cc2c-1nc1ccccc1c2/C=N/N=C(N)N | 0.67 | 4.41 | 
CC[C@@]1(O)C(=O)OCc2c1cc1n(c2=O)Cc2c-1nc1ccccc1c2CNC1CCCCC1 | 2.44 | 6.46 | 
CC[C@@]1(O)C(=O)OCc2c1cc1n(c2=O)Cc2c-1nc1ccccc1c2/C=N/Cc1ccccc1 | 3.26 | 6.55 | 
CC[C@@]1(O)C(=O)OCc2c1cc1n(c2=O)Cc2c-1nc1ccccc1c2/C=N/C1CCCCC1 | 3.08 | 6.43 | 
CC[C@@]1(O)C(=O)OCc2c1cc1n(c2=O)Cc2c-1nc1ccccc1c2/C=N/c1ccccc1 | 3.19 | 6.89 | BWL [2]: 1%; BWL [3]: 2%; BWL [4]: 7%; TVI [5]: 89%; TVI [6]: 51%; TVI [7]: 33%
CC[C@@]1(O)C(=O)OCc2c1cc1n(c2=O)Cc2c-1nc1ccccc1c2/C=N/CCCCO | 1.57 | 6.44 | 
CC[C@@]1(O)C(=O)OCc2c1cc1n(c2=O)Cc2c-1nc1ccccc1c2/C=N/CCN(C)C | 1.53 | 6.92 | 
CC[C@@]1(O)C(=O)OCc2c1cc1n(c2=O)Cc2cc3c(CN(C)C)c(O)ccc3nc2-1 [TOPOTECAN] |  | 5.86 | BWL [8]: 12%; TVI [9]: 95%
CC[C@@]1(O)C(=O)OCc2c1cc1n(c2=O)Cc2c-1nc1ccccc1c2CN=C(N)N | -0.79 | 4.90 | 
CC[C@@]1(O)C(=O)OCc2c1cc1n(c2=O)Cc2c-1nc1ccccc1c2CN | 0.37 | 5.63 | 
CC[C@@]1(O)C(=O)OCc2c1cc1n(c2=O)Cc2c-1nc1ccccc1c2CNc1ccccc1 | 2.56 | 6.51 | 
CC[C@@]1(O)C(=O)OCc2c1cc1n(c2=O)Cc2c-1nc1ccccc1c2CNCCN(C)C | 0.89 | 6.35 | 
CC[C@@]1(O)C(=O)OCc2c1cc1n(c2=O)Cc2c-1nc1ccccc1c2/C=N/c1ccc([N+](=O)[O-])cc1 | 2.34 | 6.55 | 
